According to US20230329993A1, “PERSONAL CLEANSING COMPOSITION FREE OF ALKYL SULFATE OR ALKYL ETHER SULFATE TYPE OF SURFACTANTS” (The Procter & Gamble Company, priority 2022, published 2023):

Experiment: Cone/Plate Viscosity Measurement
Format: physicochemical
Conditions: composition such as C. Ex. 1; thickener level not stated
Method: The viscosity of the personal cleansing composition is measured by a Cone/Plate Brookfield DV12T, by Brookfield Engineering Laboratories, Stoughton, MA. The cone used (Spindle CPA-41z) has a diameter of […] and 3° angle. The viscosity is determined using a steady state flow experiment at constant shear rate of 2 s^−1 and at temperature of 26.5° C. The sample size is 2.5 mL.

## cocamide MEA
  Effect of a thickener on enhancing the viscosity of a personal cleansing composition: good response
